One block for each molecule: values may come before it.
Assays:
DU-145 [1] = experiment: Cytotoxicity against human DU-145 cells assessed as reduction in cell viability measured after 72 hrs by SRB assay; type: functional, cell-based; details: DU-145, 72 h
PC-3 = experiment: Cytotoxicity against human PC-3 cells assessed as reduction in cell viability measured after 72 hrs by SRB assay; type: functional, cell-based; details: PC-3, 72 h
NCI-H460 [2] = experiment: Cytotoxicity against human NCI-H460 cells assessed as reduction in cell viability measured after 72 hrs by SRB assay; type: functional, cell-based; details: NCI-H460, 72 h
HCT-116 [3] = experiment: Cytotoxicity against human HCT-116 cells assessed as reduction in cell viability measured after 72 hrs by SRB assay; type: functional, cell-based; details: HCT-116, 72 h
UMUC3 [4] = experiment: Cytotoxicity against human UMUC3 cells assessed as reduction in cell viability measured after 72 hrs by SRB assay; type: functional, cell-based; details: UMUC3, 72 h
MCF7 = experiment: Cytotoxicity against human MCF7 cells assessed as reduction in cell viability measured after 72 hrs by SRB assay; type: functional, cell-based; details: MCF7, 72 h
MDA-MB-231 = experiment: Cytotoxicity against human MDA-MB-231 cells assessed as reduction in cell viability measured after 72 hrs by SRB assay; type: functional, cell-based; details: MDA-MB-231, 72 h
PANC-1 [5] = experiment: Cytotoxicity against human PANC-1 cells assessed as reduction in cell viability measured after 72 hrs by SRB assay; type: functional, cell-based; details: PANC-1, 72 h
MIA PaCa-2 [6] = experiment: Cytotoxicity against human MIA PaCa-2 cells assessed as reduction in cell viability measured after 72 hrs by SRB assay; type: functional, cell-based; details: MIA PaCa-2, 72 h
ASPC1 = experiment: Cytotoxicity against human ASPC1 cells assessed as reduction in cell viability measured after 72 hrs by SRB assay; type: functional, cell-based; details: ASPC1, 72 h
W256 [7] = experiment: Antitumour activity against Walker 256 adenocarcinoma cells implanted in Wistar rat assessed as increase in animal survival rate by measuring T/C ratio at 2.5 mg/kg, ip qd for 3 days administered on day 3,4,5 after tumor cell transplantation; type: functional; details: time 3 day
DU-145 [8] = experiment: Antitumour activity against human DU-145 cells xenografted in Crl:Nu-Foxnl nu mouse assessed as inhibition of tumour growth at total effective dose of 16 mg/kg, iv measured on day 35; type: functional; details: DU-145, iv, 840 h, time 35 day, read-out: TGI
DU-145 [9] = experiment: Antitumour activity against human DU-145 cells xenografted in Crl:Nu-Foxnl nu mouse assessed as inhibition of tumour growth at total effective dose of 8 mg/kg, iv measured on day 64; type: functional; details: DU-145, iv, 1536 h, time 64 day, read-out: TGI
HCT-116 [10] = experiment: Antitumour activity against human HCT-116 cells xenografted in Crl:Nu-Foxnl nu mouse assessed as inhibition of tumour growth at total effective dose of 18 mg/kg, ip measured on day 14; type: functional; details: HCT-116, ip, 336 h, time 14 day, read-out: TGI
HCT-116 [11] = experiment: Antitumour activity against human HCT-116 cells xenografted in Crl:Nu-Foxnl nu mouse assessed as inhibition of tumour growth at total effective dose of 24 mg/kg, iv measured on day 30; type: functional; details: HCT-116, iv, 720 h, time 30 day, read-out: TGI
NCI-H460 [12] = experiment: Antitumour activity against human NCI-H460 cells xenografted in Crl:Nu-Foxnl nu mouse assessed as inhibition of tumour growth at total effective dose of 48 mg/kg, iv measured on day 23; type: functional; details: 552 h, time 23 day, read-out: TGI
Quadruplex DNA [13] = experiment: Stabilization of 5'-FAM/3'-TAMRA labeled c-Myc promoter G4 quadruplex DNA FPu18 (unknown origin) assessed as change in melting temperature at 10 microM measured after 15 mins by FRET assay; type: nucleic-acid assay
Quadruplex DNA [14] = experiment: Stabilization of 5'-FAM/3'-TAMRA labeled telomeric G4 quadruplex DNA F21T (unknown origin) assessed as change in melting temperature at 10 microM measured after 15 mins by FRET assay; type: nucleic-acid assay
Quadruplex DNA [15] = experiment: Stabilization of 5'-FAM/3'-TAMRA labeled K-Ras G4 quadruplex DNA (unknown origin) assessed as change in melting temperature at 10 microM measured after 15 mins by FRET assay; type: nucleic-acid assay
[16] = Stabilization of ds 5'-FAM-d(TATAGCTATA-HEG-TATAGCTATA)-TAMRA-3' (unknown origin) assessed as change in melting temperature at 10 microM measured after 15 mins by FRET assay; details: Homo sapiens
HT-29 = experiment: Cytotoxicity against human HT-29 cells assessed as reduction in cell viability measured after 72 hrs by SRB assay; type: functional, cell-based; details: HT-29, 72 h
BXPC-3 [17] = experiment: Cytotoxicity against human BXPC-3 cells assessed as reduction in cell viability measured after 72 hrs by SRB assay; type: functional, cell-based; details: BXPC-3, 72 h
Capan-2 = experiment: Cytotoxicity against human Capan-2 cells assessed as reduction in cell viability measured after 72 hrs by SRB assay; type: functional, cell-based; details: Capan-2, 72 h
PANC-1 [18] = experiment: Antitumour activity against human PANC-1 cells xenografted in Crl:Nu-Foxnl nu mouse assessed as inhibition of tumour growth at total effective dose of 8 mg/kg, iv measured on day 32; type: functional; details: PANC-1, iv, 768 h, time 32 day, read-out: TGI
MIA PaCa-2 [19] = experiment: Antitumour activity against human MIA PaCa-2 cells xenografted in Crl:Nu-Foxnl nu mouse assessed as inhibition of tumour growth at total effective dose of 16 mg/kg, iv measured on day 26; type: functional; details: MIA PaCa-2, iv, 624 h, time 26 day, read-out: TGI
UMUC3 [20] = experiment: Antitumour activity against human UMUC3 cells xenografted in Crl:Nu-Foxnl nu mouse assessed as inhibition of tumour growth at total effective dose of 28 mg/kg, iv measured on day 23; type: functional; details: 552 h, time 23 day, read-out: TGI
PANC-1 [21] = experiment: Antitumour activity against human PANC-1 cells xenografted in Crl:Nu-Foxnl nu mouse assessed as inhibition of tumour growth at total effective dose of 10 mg/kg, iv measured on day 31; type: functional; details: PANC-1, iv, 744 h, time 31 day, read-out: TGI
PANC-1 [22] = experiment: Antitumour activity against human PANC-1 cells xenografted in Crl:Nu-Foxnl nu mouse assessed as inhibition of tumour growth at total effective dose of 36 mg/kg, iv measured on day 45; type: functional; details: PANC-1, iv, 1080 h, time 45 day, read-out: TGI
PANC-1 [23] = experiment: Antitumour activity against human PANC-1 cells xenografted in Crl:Nu-Foxnl nu mouse assessed as inhibition of tumour growth at total effective dose of 20 mg/kg, iv measured on day 36; type: functional; details: PANC-1, iv, 864 h, time 36 day, read-out: TGI
PANC-1 [24] = experiment: Antitumour activity against human PANC-1 cells xenografted in Crl:Nu-Foxnl nu mouse assessed as inhibition of tumour growth at total effective dose of 16 mg/kg, iv measured on day 40; type: functional; details: PANC-1, iv, 960 h, time 40 day, read-out: TGI
MIA PaCa-2 [25] = experiment: Antitumour activity against human MIA PaCa-2 cells xenografted in Crl:Nu-Foxnl nu mouse assessed as inhibition of tumour growth at total effective dose of 42 mg/kg, iv measured on day 26; type: functional; details: MIA PaCa-2, iv, 624 h, time 26 day, read-out: TGI
MIA PaCa-2 [26] = experiment: Antitumour activity against human MIA PaCa-2 cells xenografted in Crl:Nu-Foxnl nu mouse assessed as inhibition of tumour growth at total effective dose of 8 mg/kg, ip measured on day 15; type: functional; details: MIA PaCa-2, ip, 360 h, time 15 day, read-out: TGI
BXPC-3 [27] = experiment: Antitumour activity against human BXPC-3 cells xenografted in Crl:Nu-Foxnl nu mouse assessed as inhibition of tumour growth at total effective dose of 30 mg/kg, iv measured on day 37; type: functional; details: BXPC-3, iv, 888 h, time 37 day, read-out: TGI
W256 [28] = experiment: Antitumour activity against Walker 256 adenocarcinoma cells implanted in Wistar rat assessed as increase in animal survival rate by measuring T/C ratio at 0.65 mg/kg, ip qd for 3 days administered on day 3,4,5 after tumor cell transplantation; type: functional; details: time 3 day
NCI-H460 [29] = experiment: Antitumour activity against human NCI-H460 cells xenografted in Crl:Nu-Foxnl nu mouse assessed as inhibition of tumour growth at total effective dose of 5 mg/kg, iv measured on day 15; type: functional; details: 360 h, time 15 day, read-out: TGI
NCI-H460 [30] = experiment: Antitumour activity against human NCI-H460 cells xenografted in Crl:Nu-Foxnl nu mouse assessed as inhibition of tumour growth at total effective dose of 16 mg/kg, iv measured on day 14; type: functional; details: 336 h, time 14 day, read-out: TGI
PANC-1 [31] = experiment: Antitumour activity against human PANC-1 cells xenografted in Crl:Nu-Foxnl nu mouse assessed as inhibition of tumour growth at total effective dose of 10 mg/kg, iv measured on day 45; type: functional; details: PANC-1, iv, 1080 h, time 45 day, read-out: TGI

Compound: O=c1c2ccccc2[nH]c2c([N+](=O)[O-])ccc(NCCCN3CCN(CCCNc4c5ccccc5nc5cccc([N+](=O)[O-])c45)CC3)c12
- IC50 (DU-145 [1]): 11 nM
- IC50 (PC-3): 26 nM
- IC50 (NCI-H460 [2]): 9 nM
- IC50 (HCT-116 [3]): 20 nM
- IC50 (UMUC3 [4]): 17 nM
- IC50 (MCF7): 77 nM
- IC50 (MDA-MB-231): 28 nM
- IC50 (PANC-1 [5]): 56 nM
- IC50 (MIA PaCa-2 [6]): 28 nM
- IC50 (ASPC1): 78 nM
- T/C (W256 [7]): 400%
- inhibition in vivo at 16 mg/kg (DU-145 [8]): 77%
- inhibition in vivo at 8 mg/kg (DU-145 [9]): 81%
- inhibition in vivo at 18 mg/kg (HCT-116 [10]): 52%
- inhibition in vivo at 24 mg/kg (HCT-116 [11]): 34%
- inhibition in vivo at 48 mg/kg (NCI-H460 [12]): 60%
- ΔTm (Quadruplex DNA [13]): 23.7 °C
- ΔTm (Quadruplex DNA [14]): 8.5 °C
- ΔTm (Quadruplex DNA [15]): 25.1 °C
- ΔTm [16]: 3.2 °C

- ΔTm (Quadruplex DNA [13]): 28.5 °C
- ΔTm (Quadruplex DNA [14]): 9.2 °C
- ΔTm (Quadruplex DNA [15]): 22.3 °C
- ΔTm [16]: 3.8 °C
Compound: O=c1c2cc(O)ccc2n2cnc3ccc(NCCCN4CCN(CCCNc5c6ccccc6nc6cccc([N+](=O)[O-])c56)CC4)c1c32
- IC50 (DU-145 [1]): 20 nM
- IC50 (PC-3): 35 nM
- IC50 (HT-29): 81 nM
- IC50 (NCI-H460 [2]): 17 nM
- IC50 (HCT-116 [3]): 20 nM
- IC50 (UMUC3 [4]): 18 nM
- IC50 (MCF7): 62 nM
- IC50 (MDA-MB-231): 19 nM
- IC50 (PANC-1 [5]): 24 nM
- IC50 (MIA PaCa-2 [6]): 21 nM
- IC50 (BXPC-3 [17]): 164 nM
- IC50 (ASPC1): 191 nM
- IC50 (Capan-2): 43 nM
- inhibition in vivo at 8 mg/kg (PANC-1 [18]): 51%
- inhibition in vivo at 16 mg/kg (MIA PaCa-2 [19]): 29%
- inhibition in vivo at 28 mg/kg (UMUC3 [20]): 47%
- inhibition in vivo at 10 mg/kg (PANC-1 [21]): 71%
- inhibition in vivo at 36 mg/kg (PANC-1 [22]): 90%
- inhibition in vivo at 20 mg/kg (PANC-1 [23]): 59%
- inhibition in vivo at 16 mg/kg (PANC-1 [24]): 82%
- inhibition in vivo at 42 mg/kg (MIA PaCa-2 [25]): 50%
- inhibition in vivo at 8 mg/kg (MIA PaCa-2 [26]): 51%
- inhibition in vivo at 30 mg/kg (BXPC-3 [27]): 64%

Compound: CN(CCCNc1c2ccccc2nc2cccc([N+](=O)[O-])c12)CCCNc1ccc([N+](=O)[O-])c2[nH]c3ccccc3c(=O)c12
- IC50 (DU-145 [1]): 24 nM
- IC50 (PC-3): 51 nM
- IC50 (HT-29): 67 nM
- IC50 (NCI-H460 [2]): 10 nM
- IC50 (HCT-116 [3]): 260 nM
- IC50 (UMUC3 [4]): 29 nM
- IC50 (MCF7): 695 nM
- IC50 (MDA-MB-231): 28 nM
- IC50 (PANC-1 [5]): 28 nM
- IC50 (MIA PaCa-2 [6]): 103 nM
- IC50 (ASPC1): 66 nM
- T/C (W256 [28]): 450%
- inhibition in vivo at 5 mg/kg (NCI-H460 [29]): 14%
- inhibition in vivo at 16 mg/kg (NCI-H460 [30]): 35%
- inhibition in vivo at 10 mg/kg (PANC-1 [31]): 23%
- ΔTm (Quadruplex DNA [13]): 19.4 °C
- ΔTm (Quadruplex DNA [14]): 24.5 °C
- ΔTm (Quadruplex DNA [15]): 27.4 °C
